“Also recorded” adds a separate entry of the source.
Columns and labels:
[1] = test system: dopamine autoreceptors; assay: GBL-model (DA synthesis rate; presynaptic dopamine autoreceptors); format: in vivo, rat
Source text: The effects on DOPA accumulation in the GBL-model is considered to reflect an event at the presynaptic dopamine autoreceptors (for further details, see Svensson et al., Nunyn-Schmiedeberg's Arch. Pharm., 334, 234(1986)).

[2] = test system: central dopamine receptors; assay: Locomotor activity and DA synthesis in reserpinized rats; format: in vivo, rat; settings: reserpinized rats
[3] = test system: DA receptor; assay: DOPA accumulation (DA synthesis rate) in non-pretreated rats after NSD 1015; settings: for duration of the increase in brain DOPA accumulation: 50 μmol/kg
Protocol: injected with NSD 1015 (100 mg/kg, i.p.) and then killed 30 min later.
In-vivo determination of rat brain monoamine metabolites and tyrosine and tryptophan hydroxylation (biochemically monitored DA and 5-HT receptor agonist or antagonist activity).
The compounds under evaluation were tested biochemically for central DA and 5-HT receptor (pre- and/or postsynaptic) stimulating and/or blocking activity. The concept of this biochemical screening method is that a DA or 5-HT receptor agonist will stimulate the receptor and through regulatory negative feed-back systems induce a decline in tyrosine or tryptophan hydroxylating activity, respectively, and a subsequent reduction in the synthesis rate of DA and 5-HT in the presynaptic neuron. […] The biochemical experiments and the determinations of Dopa and 5-HTP by means of HPLC with electrochemical detection were performed. The antagonistic effects were seen as increases in the synthesis rate (n=4), as a result of the positive feed-back upregulation of synthesis. The effects on Dopa and 5-HTP accumulation are expressed as % of controls, which were: DOPA limbic system=447±23 ng/g and DOPA striatum=1045±47ng/g, 5-HTP limbic region 241±2 ng/g (Table 2).
(§4) Animals used in the biochemical and motor activity experiments were male rats of the Sprague-Dawley strain (ALAB, Sollentuna, Sweden), weighing 200-300 g. The rats were kept 5 per cage with free access to water and food (except for the starved animals for the experiments with per oral administration, who were only allowed water the last 18 hours before testing), at least one week from arrival until used in the experiments.
(§5) All substances to be tested were dissolved in saline immediately before use, occasionally with the addition of a few drops of glacial acetic acid and/or moderate heating in order to obtain complete dissolution. Injection volumes were 5 mL/kg.
Analysis of variance (ANOVA) followed by Fischer's test was used for the statistical calculations. P values less than 0.05 were regarded statistically significant.
DOPA accumulation (DA synthesis rate) in non-pretreated rats (Table 2). After the locomotor activity session (see Table 2, above) the rats were injected with the decarboxylase inhibitor NSD 1015 (100 mg/kg, sc) and killed 30 minutes later. The DOPA accumulation in the DA -rich limbic and striatal and the NE-rich cortical (mainly hemispheres) brain areas were expressed as % of saline treated controls.
DOPA accumulation, time course after s.c. and p.o. administration (Table 2). […] NSD 1015 (100 mg/kg, sc) was injected 30 minutes before death. The data are expressed as % of saline treated controls.

[4] = test system: habituated rats; assay: Locomotor activity and behavior in habituated rats; format: in vivo, rat (male Sprague-Dawley); settings: 60 min
Protocol: (§1) Footnotes Table 3. The rats were habituated to the motility meters 60 min
prior to the activity session.
(§2) Injection volumes were 5 mL/kg.
Locomotor activity was measured in rats which were habituated 60 minutes to the activity meters before drug injection. The activity was measured for the subsequent 60 minutes and expressed as % of controls (means ±SEM, n=4).

[5] = molecular target: T1, D2 receptors (Rattus norvegicus, UniProt P61169); assay: D2 antagonist binding ([3H]-spiperone), rat striatum
T1 construct: Preparation of rat striatal membranes for (3H)-spiperone; from tissue; host or cells: rat striatum (striatal membranes)
Protocol: D2 antagonist binding. Preparation of rat striatal membranes for (3H)-spiperone (specific activity 21-24 Ci/mmol) binding was carried out in a similar manner as described for D1-binding, Hyttel et al., J. Neural. Transm., 68, 171 (1987).
IC50 values were calculated by semi-log plot and linear regression analysis.

[6] = test system: striatal DA release; assay: In vivo brain microdialysis in rat striatum (conscious rats); settings: for Microdialysis in rat striatum, 5-HIAA / Microdialysis in rat striatum, DA / Microdialysis in rat striatum, DOPAC / Microdialysis in rat striatum, HVA: 50 μmol/kg s.c.
Protocol: (§3) In the experiments with habituated rats no NSD was administered and the animals were killed one hour after drug administration. […] The levels were expressed as % of controls (DOPAC and 5-HIAA see Table 3). The in vivo brain microdialysis experiments were performed in conscious rats as described by Waters et al., Eur. J. Pharm., 187, 425-34 (1990).
The dialysis was performed in conscious rats implanted with a dialysis probe (Carnegie Medicin, Stockholm) in the caudate. […] The perfusion media was a Ringer solution with a Ca2+ concentration of 1.2 mM. The perfusion rate was 2.0 μL/min and samples were collected every 20 minutes and analyzed on HPLC/EC. Data are expressed as % of controls, means ±SEM, n=4.

[7] = test system: 5-HT receptor; assay: 5-HT metabolism (5-HIAA levels) in habituated rats; format: in vivo, rat (male Sprague-Dawley); settings: Table 3
Protocol: as §1
SEM. The rats were immediately killed after the activity session, striata
and limbic levels of DOPAC and 5HIAA were measured by means of HPLCEC. *p
as §3
Injection volumes were 5 mL/kg. […]

[8] = test system: 5-HT receptor; assay: 5-HTP accumulation (5-HT synthesis rate) in non-pretreated rats after NSD 1015; format: in vivo, rat (male Sprague-Dawley)
Protocol: observations are commented to the right. After the session the rats were
accumulation in the NErich cortical regions and 5HTP in the limbic
as §2

[9] = test system: non-pretreated rats; assay: Locomotor activity and gross behavior in non-habituated (non-pretreated) rats; settings: for Gross Behavioral Observations: non-pretreated rats
Source text: Immediately after drug administration, the rats were placed in the test cages (one rat/cage) and put into the motility meters. […] Observations of gross behavior were made throughout the activity sessions through semi-transparent mirrors.
as §4, §5
Analysis of variance (ANOVA) followed by Fischer's test was used for the statistical calculations.
In vivo behavioral data was obtained with rats injected with drug and 5 minutes later put into the motility chambers for the first time. The motor activity was measured for the subsequent 30 minutes (accumulated counts/30 minutes) and expressed as % of saline treated controls.

[10] = test system: DA receptor; assay: DA metabolism (DOPAC, HVA levels) in habituated rats; format: in vivo, rat (male Sprague-Dawley); settings: Rattus norvegicus, 1 h, read-out: DOPAC limbic
Method in brief: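 Rats habituated to motility meters 60 min, no NSD given; killed one hour after drug administration (injection volume 5 mL/kg). Striatal and limbic DOPAC, HVA and 5-HIAA measured by HPLC-EC, expressed as % of controls (means ±SEM).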

T1 sequence (P61169 whole entry): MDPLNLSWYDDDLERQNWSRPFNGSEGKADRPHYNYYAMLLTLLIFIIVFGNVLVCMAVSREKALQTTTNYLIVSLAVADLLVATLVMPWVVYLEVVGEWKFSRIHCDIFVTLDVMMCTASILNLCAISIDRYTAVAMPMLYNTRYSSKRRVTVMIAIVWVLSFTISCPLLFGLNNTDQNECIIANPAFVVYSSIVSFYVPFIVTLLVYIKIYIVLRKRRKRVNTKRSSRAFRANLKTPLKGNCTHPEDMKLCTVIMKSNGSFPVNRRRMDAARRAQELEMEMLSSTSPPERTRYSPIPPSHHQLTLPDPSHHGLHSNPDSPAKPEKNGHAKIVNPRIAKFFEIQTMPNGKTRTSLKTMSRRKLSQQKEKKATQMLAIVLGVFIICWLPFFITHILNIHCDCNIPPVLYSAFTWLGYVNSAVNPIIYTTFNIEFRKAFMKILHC

Structure (SMILES): CCCN1CCC[C@@H](c2cccc(C#N)c2)C1 [S-(-)-34, S-(-)-3-(3-Cyanophenyl-N-n-propyl)piperidine]
- blockade of the apomorphine effect in the GBL-model ([1]; 100 μmol/kg, sc): only a partial blockade
- effect per se in the GBL-model ([1]; 200 μmol/kg, sc): inactive per se
- blockade of the apomorphine effect in the GBL-model ([1]; 200 μmol/kg, sc, 40 minutes): blocked the effect of apomorphine
- blockade of apomorphine in the GBL-model (in words) ([1]; rat, in vivo): blocks apomorphine in the GBL-model
- DA synthesis rate / DOPA accumulation in reserpinized rats (in words) [2]: failed to affect the DOPA accumulation in reserpinized
- duration of the increase in brain DOPA accumulation ([3]; po): 1.5 to 2.5 h
- duration of the increase in brain DOPA accumulation ([3]; s.c.): 2.5 to 4.5 h
- DOPA accumulation in limbic and striatal brain regions (in words) ([3]; 3.1-200 μmol/kg, s.c.): elevated in the limbic (limb.) and striatal (stri) brain regions with a maximal response equal to that observed for classical neuroleptics such as haloperidol
- DOPA acc Cortex ([3]; 50 sc): 155 ± 9 % of saline controls
- DOPA acc Stratium ([3]; 50 sc): 285 ± 3 % of saline controls
- DOPA acc Cortex ([3]; 100 sc): 158 ± 8 % of saline controls
- DOPA acc Stratium ([3]; 100 sc): 268 ± 16 % of saline controls
- DOPA acc Cortex ([3]; 200 sc): 148 ± 16 % of saline controls
- DOPA acc Stratium ([3]; 200 sc): 294 ± 26 % of saline controls
- estimated availability ([3]; from DOPA accumulation in the striatum after sc and po administration): 50%
- cortical DOPA formation (in words) ([3]; s.c.): slightly, but statistically significantly increased; also recorded: slight increase in cortical DOPA accumulation
- locomotor stimulation in habituated rats ([4]; % of controls): +600%
- response vs control in vivo at 25 µmol/kg ([4]; Rattus norvegicus, 1 h, 25 μmol/kg po, habituated rats, read-out: Motor Activity): 231 ± 31%
- affinity for D2 receptors (in words) ([5]; (3H)-Spiperone binding): weak, affinity to the dopamine D2 receptor site
- IC50 ([5]; read-out: in vitro binding IC50, D2 -spip, [3H]-spiperone, rat striatum): 3.5 µM
- Microdialysis in rat striatum, 5-HIAA ([6]; 0 min): 100 % of control
- Microdialysis in rat striatum, DA ([6]; 0 min): 100 % of control
- Microdialysis in rat striatum, DOPAC ([6]; 0 min): 100 % of control
- Microdialysis in rat striatum, HVA ([6]; 0 min): 100 % of control
- Microdialysis in rat striatum, 5-HIAA ([6]; 20 min): 110 % of control
- Microdialysis in rat striatum, DA ([6]; 20 min): 180 % of control
- Microdialysis in rat striatum, DOPAC ([6]; 20 min): 180 % of control
- Microdialysis in rat striatum, HVA ([6]; 20 min): 140 % of control
- Microdialysis in rat striatum, 5-HIAA ([6]; 40 min): 115 % of control
- Microdialysis in rat striatum, DA ([6]; 40 min): 240 % of control
- Microdialysis in rat striatum, DOPAC ([6]; 40 min): 250 % of control
- Microdialysis in rat striatum, HVA ([6]; 40 min): 200 % of control
- Microdialysis in rat striatum, 5-HIAA ([6]; 60 min): 120 % of control
- Microdialysis in rat striatum, DA ([6]; 60 min): 280 % of control
- Microdialysis in rat striatum, DOPAC ([6]; 60 min): 295 % of control
- Microdialysis in rat striatum, HVA ([6]; 60 min): 250 % of control
- Microdialysis in rat striatum, 5-HIAA ([6]; 80 min): 115 % of control
- Microdialysis in rat striatum, DA ([6]; 80 min): 300 % of control
- Microdialysis in rat striatum, DOPAC ([6]; 80 min): 300 % of control
- Microdialysis in rat striatum, HVA ([6]; 80 min): 280 % of control
- Microdialysis in rat striatum, 5-HIAA ([6]; 100 min): 115 % of control
- Microdialysis in rat striatum, DA ([6]; 100 min): 280 % of control
- Microdialysis in rat striatum, DOPAC ([6]; 100 min): 295 % of control
- Microdialysis in rat striatum, HVA ([6]; 100 min): 300 % of control
- Microdialysis in rat striatum, 5-HIAA ([6]; 120 min): 110 % of control
- Microdialysis in rat striatum, DA ([6]; 120 min): 275 % of control
- Microdialysis in rat striatum, DOPAC ([6]; 120 min): 280 % of control
- Microdialysis in rat striatum, HVA ([6]; 120 min): 310 % of control
- Microdialysis in rat striatum, 5-HIAA ([6]; 140 min): 105 % of control
- Microdialysis in rat striatum, DA ([6]; 140 min): 225 % of control
- Microdialysis in rat striatum, DOPAC ([6]; 140 min): 260 % of control
- Microdialysis in rat striatum, HVA ([6]; 140 min): 300 % of control
- Microdialysis in rat striatum, 5-HIAA ([6]; 160 min): 110 % of control
- Microdialysis in rat striatum, DA ([6]; 160 min): 200 % of control
- Microdialysis in rat striatum, DOPAC ([6]; 160 min): 250 % of control
- Microdialysis in rat striatum, HVA ([6]; 160 min): 305 % of control
- Microdialysis in rat striatum, 5-HIAA ([6]; 180 min): 110 % of control
- Microdialysis in rat striatum, DA ([6]; 180 min): 190 % of control
- Microdialysis in rat striatum, DOPAC ([6]; 180 min): 230 % of control
- Microdialysis in rat striatum, HVA ([6]; 180 min): 280 % of control
- Microdialysis in rat striatum, 5-HIAA ([6]; 200 min): 110 % of control
- Microdialysis in rat striatum, DA ([6]; 200 min): 180 % of control
- Microdialysis in rat striatum, DOPAC ([6]; 200 min): 215 % of control
- Microdialysis in rat striatum, HVA ([6]; 200 min): 220 % of control
- Microdialysis in rat striatum, 5-HIAA ([6]; 220 min): 100 % of control
- Microdialysis in rat striatum, DA ([6]; 220 min): 160 % of control
- Microdialysis in rat striatum, DOPAC ([6]; 220 min): 190 % of control
- Microdialysis in rat striatum, HVA ([6]; 220 min): 230 % of control
- duration for the increase in DOPAC and HVA ([6]; 50 μmol/kg, sc): at least 4 hours
- duration of the effect (DA release) ([6]; 50 μmol/kg, sc): approximately 2.5 hours
- levels of 5-HIAA, microdialysis (in words) ([6]; 50 μmol/kg, sc): No consistent changes in the levels of 5-HIAA; also recorded: failed to affect brain levels of 5-HIAA
- brain 5-HIAA levels (in words) [7]: no statistical significant effects; also recorded: No effects on the brain levels of 5-HIAA; also recorded: failed to affect brain levels of 5-HIAA
- brain 5-HTP formation, elevation ([8]; 25 μmol/kg, sc and above): 45-50%
- 5-HTP acc Limbic Region ([8]; 50 sc): 144 ± 6 % of saline controls
- 5-HTP acc Limbic Region ([8]; 100 sc): 148 ± 10 % of saline controls
- 5-HTP acc Limbic Region ([8]; 200 sc): 80 ± 12 % of saline controls
- brain 5-HTP levels (in words) ([8]; non-pretreated rats): elevated brain 5-HTP levels
- increase in motor activity, maximal effect ([9]; 25-200 μmol/kg, sc, dose-dependent monophasic, non-habituated rats): +60%
- Gross Behavioral Observations ([9]; 50 sc): Activation
- Gross Behavioral Observations ([9]; 100 sc): Activation
- Gross Behavioral Observations ([9]; 200 sc): No change
- response vs control in vivo at 25 µmol/kg ([10]; po): 138 ± 13%
- response vs control in vivo at 100 µmol/kg ([10]; sc): 226 ± 11%

Reference: patent US5594024A, “Centrally actig substituted phenylazacycloalkanes” (priority 1995, dated 1997)
